2 compounds from US9632075B2, “Prevention or attenuation of neuropathic pain by bile acids” (Metselex, Inc., priority 2011, dated 2017) can be followed below.

What all share (type): in vivo, rat
Test [1] has as its system paw withdrawal threshold. Briefly: von Frey testing for tactile hypersensitivity after SNL. To be noted: for withdrawal threshold of the ipsilateral hindpaw: TUDCA 300 mg/kg i.p. From the text:
(§1) Rats were divided into two experimental groups: a group in which the L5 spinal nerve was ligated and cut, and a sham-operated control group. The left L5 spinal nerve was isolated, tightly ligated and cut distal to the ligation under isoflurane anesthesia (1.5%). The surgical procedure for the sham-operated group was identical to that of the SNL group, except that the L5 spinal nerve was not ligated or cut. General behavior of the rats was monitored before and after the surgery. Any rats showing difficulty elevating a hindpaw were discarded from the study.
(§2) Rats were treated with 5,7-dihydroxytryptamine (5,7-DHT: 100 μg/10 μl, intracisternal injection) to induce loss of RVM serotonergic neurons. Rats were randomly assigned to one of four groups for these experiments: (1) L5 SNL with 5,7-DHT; (2) L5 SNL with vehicle injection; (3) sham with 5,7-DHT; and (4) sham with vehicle. Injections were given ten days after surgery; animals receiving vehicle injections received sterile saline (10 μl, intracisternal injection). To prevent damage to noradrenergic (NE) neurons, the inventors pre-treated animals 30 minutes before 5,7-DHT and saline administration with desipramine (20 mg/kg i.p.), an inhibitor of neuronal NE reuptake. To test the effects of inhibiting apoptosis on SNL, the inventors administered a systemically active inhibitor of apoptosis, tauroursodeoxycholic acid (TUDCA) (300 mg/kg i.p. or saline prior to and after surgery. For each group, injections were given every-other day, starting 3 days prior to surgery and continuing until sacrifice. To confirm the efficacy of TUDCA, the inventors tested its effects on dexamethasone-induced apoptosis in thymus. Two TUDCA injections (300 mg/kg i.p.) were given: one to two days prior to dexamethasone (1 mg/kg i.p.) administration and one the day of dexamethasone administration. Control animals were given saline injections instead of TUDCA solution. Rats were killed one day after dexamethasone administration.
Mechanical sensitivity was determined by measuring the paw withdrawal threshold in response to the application of von Frey filaments, using the up-down method of Chaplan. In brief, rats were placed on a wire mesh surface, covered by an inverted plastic cage and allowed to habituate for 15 min. Filaments were then applied to the plantar surface of the hindpaw. If application of the filament evoked no response, the next-larger filament was applied; if application elicited withdrawal, the next-smaller filament was applied. This sequence was repeated until the largest filament was used or until four filaments were applied after the first withdrawal was noted. Withdrawal thresholds were measured prior to surgery and at 2-3 day intervals after surgery. In all cases, thresholds were measured bilaterally.

The subject of test [2] is RVM neurons. In words: number of RVM neurons after spinal nerve ligation (SNL), stereological cell counting.
From the text: as §1, §2
(§3) The RVM and spinal cord were sectioned using a freezing microtome (Leica, SM2400) at a nominal thickness of 50 μm. […]

Test [3] relates to thymus. In words: dexamethasone-induced apoptosis in thymus (caspase-3 labeling). The note with it: TUDCA 300 mg/kg i.p., two injections; dexamethasone 1 mg/kg i.p. As for the experimental part: as §2, with “Rats were killed one day after dexamethasone administration.” left out
Test [4] relates to RVM glia. Briefly: number of RVM glia after SNL (Nissl-stained tissue). To be noted: SNL rats.
From the text: as §1, §2
Conventional microscopy was used to collect images of the RVM for cell counting. An Olympus BX50 fluorescence microscope (Tokyo, Japan) equipped with filter sets designed to allow selective visualization of Cy2 and Cy3 was used. Microscopic images were collected with a Scion 1346 digital camera. Confocal images were collected using an Olympus FluoView FV1000 microscope (Tokyo, Japan). ImageJ 1.29 (developed at NIH and available at http://rsb.info.nih.gov/ij/) or Photoshop were used to adjust contrast and brightness in images. […]
stereological methods were used for quantification as described previously. […] The sampling interval thereafter was determined based on the number of sections within the RVM and was usually every sixth section. […]

Test [5] deals with RVM 5-HT neurons. In words: number of RVM 5-HT (TPH-ir) neurons after SNL, stereological cell counting.
From the text: as §1, §2, §3

As for `NCCc1c[nH]c2c(O)cc(O)cc12` [5,7-DHT, 5,7-dihydroxytryptamine], in test [1] (5,7-DHT 100 μg/10 μl intracisternal injection ten days after surgery), the “mechanical hypersensitivity after SNL” value is listed as “partially reversed”.
Turning to `C[C@H](CCC(=O)NCCS(=O)(=O)O)[C@H]1CC[C@H]2[C@@H]3[C@@H](O)C[C@@H]4C[C@H](O)CC[C@]4(C)[C@H]3CC[C@]12C` [TUDCA, tauroursodeoxycholic acid], in test [2] (SNL rats, TUDCA 300 mg/kg i.p. every-other day, ipsilateral, vehicle 12,540±930), the “number of RVM neurons ipsilateral to the lesion” value is listed as 17,976±1,202. In addition, the “number of RVM neurons contralateral to SNL” value in test [2] (SNL rats, TUDCA 300 mg/kg i.p., contralateral, saline 16,949±1,074) is 16,675±828. Besides, the “number of RVM neurons ipsilateral, higher than in vehicle-treated SNL rats” value in test [2] (ipsilateral, p<0.05, n=8) is listed as 43%. Moreover, the “withdrawal threshold of the ipsilateral hindpaw” value in test [1] (Day 4 post-SNL, vehicle 1.1±0.3 g) amounted to 3.5 ± 0.5 g; in test [1] (Day 6 post-SNL, vehicle 1.3±0.2 g) it was 4.0 ± 0.5 g; in test [1] (Day 8 post-SNL, vehicle 1.2±0.3 g) it was 4.6 ± 1.1 g; in test [1] (Day 10 post-SNL, vehicle 1.2±0.2 g), 5.2 ± 1.3 g. In addition, in test [1] (TUDCA 300 mg/kg i.p. every-other day), the SNL-induced mechanical hypersensitivity entry was “partially reversed”. In addition, the “tactile hypersensitivity one-to-three days after SNL” value in test [1] (one-to-three days after SNL, TUDCA) is reported as “does not reduce hypersensitivity”. The “caspase-3 labeling in thymus compared to dexamethasone alone” value in test [3] is “marked decrease”. Also, the “number of RVM glia contralateral after SNL” value in test [4] (TUDCA, contralateral, vehicle 80,086±2,899) is recorded as 60,437±4,315. For the same compound, in test [4] (TUDCA, ipsilateral, vehicle 85,541±2,972), the “number of RVM glia ipsilateral after SNL” value is given as 62,306±3,736. Also, the “RVM glia contralateral, fewer than vehicle” value in test [4] (contralateral, p<0.05) is given as 25%. Besides, in test [4] (ipsilateral, p<0.05, n=7 TUDCA, n=6 vehicle), the “RVM glia ipsilateral, fewer than vehicle” value is recorded as 27%. In addition, the “number of RVM 5-HT neurons contralateral to SNL” value in test [5] (SNL rats, TUDCA 300 mg/kg i.p., contralateral) was 1,251±99. Moreover, the “number of RVM 5-HT neurons ipsilateral to SNL” value in test [5] (SNL rats, TUDCA 300 mg/kg i.p., ipsilateral, vehicle 1,043±118) is 1,353±96. In addition, the “number of RVM 5-HT neurons ipsilateral, higher than in vehicle-treated rats” value in test [5] (ipsilateral, p<0.05, n=8) is 30%.
